Data as given in patent US10632125B2, “MTH1 inhibitors for treatment of inflammatory and autoimmune conditions” (THOMAS HELLEDAYS STIFTELSE FÖR MEDICINSK FORSKNING, priority 2014, dated 2020).

target: MTH1 (Homo sapiens, UniProt P36639); test: MTH1 enzymatic assay (malachite green, coupled to pyrophosphatase); format: biochemical; conditions: not given
Description: MTH1 catalyzes the hydrolysis of dGTP to dGMP and PPi. By coupling the reaction to pyrophosphatase added in excess PPi is converted to Pi that can be detected by using the malachite green assay reagent. […] 96-well method: Briefly, the compound to be analyzed is diluted in DMSO in a 1:3 dilution series generating 12 different compound concentrations giving a final DMSO concentration of 1% in the assay well. MTH1 diluted in assay buffer (100 mM Tris-acetate, 40 mM NaCl, 10 mM magnesium acetate, 1 mM DTT and 0.005% Tween 20) fortified with E. coli pyrophosphatase (0.2 U/ml) is added to a final concentration of 6 nM. dGTP diluted in assay buffer is added to a final concentration of 100 μM. The reaction mixture is incubated for 15 minutes at 22° C. To 100 μl reaction mixture, 25 μl Malachite green assay regent (0.095% Malachite green in 17% H2SO4, 1.5% Ammonium molybdate, 0.17% Tween 20) is added, followed by incubation with shaking for 15 minutes at 22° C. The absorbance of the assay plate is read at 630 nm using a Hidex Sense Multilabel plate reader. The IC50 value is determined by fitting a dose response curve to the data points using nonlinear regression analysis and the equation Y=Bottom+(Top-Bottom)/(1+10^((Log IC50−X)*HillSlope)), where Y is the read absorbance at 630 nm and X is log [compound].
384-Well Method: The compounds to be tested are nano-dispensed, in 11 concentrations, directly in assay plates, with a final DMSO concentration <1%. The protocol and the reaction mixture are the same as for the 96-well assay, with a total reaction volume of 50 μl/well to which 10 μl of Malachite green reagent is added. All additions to the assay plates are made with multidrop.

Row | IC50 | Structure (SMILES)
1 | < 0.2 µM | CNc1cc(-c2cccc(Cl)c2Cl)nc(N)n1 [Example 38, 6-(2,3-dichlorophenyl)-4-N-methylpyrimidine-2,4-diamine]

same assay, conditions: dGTP 100 μM, MTH1 6 nM; 96- or 384-well format; read-out: IC50

Row | Structure (SMILES) | IC50
2 | CNc1cc(-c2cn(S(=O)(=O)c3ccccc3)c3ccccc23)nc(N)n1 [Example 26, 6-[1-(benzenesulfonyl)-1H-indol-3-yl]-4-N-methylpyrimidine-2,4-diamine] | < 0.2 µM
3 | Cc1ccc(S(=O)(=O)n2cc(-c3cc(NC4CC4)nc(N)n3)c3ccccc32)cc1 [Example 27, 4-N-cyclopropyl-6-[1-(4-methylbenzenesulfonyl)-1H-indol-3-yl]pyrimidine-2,4-diamine] | < 0.2 µM
4 | Nc1nc(NC2CC2)cc(-c2cn(S(=O)(=O)c3ccccc3)c3ccccc23)n1 [Example 28, 6-[1-(benzenesulfonyl)-1H-indol-3-yl]-4-N-cyclopropylpyrimidine-2,4-diamine] | < 0.2 µM
5 | CNc1cc(-c2cn(S(=O)(=O)c3ccccc3)c3ncccc23)nc(N)n1 [Example 29, 6-[1-(benzenesulfonyl)-1H-pyrrolo[2,3-b]pyridin-3-yl]-4-N-methylpyrimidine-2,4-diamine] | < 0.2 µM
6 | CNc1cc(-c2cccc3c2ccn3S(=O)(=O)c2ccccc2)nc(N)n1 [Example 30, 6-[1-(benzenesulfonyl)-1H-indol-4-yl]-4-N-methylpyrimidine-2,4-diamine] | < 0.2 µM
7 | CNc1cc(-c2ccc(OC)cc2)nc(N)n1 [Example 33, 6-(4-methoxyphenyl)-4-N-methylpyrimidine-2,4-diamine] | < 0.2 µM
8 | CNc1cc(-c2cc(C(F)(F)F)cc(C(F)(F)F)c2)nc(N)n1 [Example 34, 6-[3,5-bis(trifluoromethyl)phenyl]-4-N-methylpyrimidine-2,4-diamine] | < 0.2 µM
9 | CNc1cc(-c2cccc(C(F)(F)F)c2)nc(N)n1 [Example 37, 4-N-methyl-6-[3-(trifluoromethyl)phenyl]pyrimidine-2,4-diamine] | < 0.2 µM
10 | CNc1cc(-c2ccc3c(c2)OCO3)nc(N)n1 [Example 39, 6-(2H-1,3-benzodioxol-5-yl)-4-N-methylpyrimidine-2,4-diamine] | < 0.2 µM
11 | CNc1cc(-c2cccc(NC(C)=O)c2)nc(N)n1 [Example 41, N-{3-[2-amino-6-(methylamino)pyrimidin-4-yl]phenyl}acetamide] | < 0.2 µM
12 | CNc1cc(-c2ccc(NC(C)=O)cc2)nc(N)n1 [Example 47, N-{4-[2-amino-6-(methylamino)pyrimidin-4-yl]phenyl}acetamide] | < 0.2 µM
13 | CNc1cc(-c2ccc(OC)nc2)nc(N)n1 [Example 49, 6-(6-methoxypyridin-3-yl)-4-N-methylpyrimidine-2,4-diamine.] | < 0.2 µM

Next, values leading:

Row | IC50 | Structure (SMILES)
14 | < 0.2 µM | Nc1nc(NC2CCCCC2)cc(-c2ccccc2)n1 [Example 1, 4-N-cyclohexyl-6-phenylpyrimidine-2,4-diamine]
15 | < 0.2 µM | CCNc1cc(-c2ccccc2)nc(N)n1 [Example 2, 4-N-ethyl-6-phenylpyrimidine-2,4-diamine]
16 | < 0.2 µM | Nc1nc(NC2CCOCC2)cc(-c2ccccc2)n1 [Example 7, 4-N-(oxan-4-yl)-6-phenylpyrimidine-2,4-diamine]
17 | < 0.2 µM | Nc1nc(NC2CC2)cc(-c2ccc(Cl)cc2)n1 [Example 13, 6-(4-chlorophenyl)-4-N-cyclopropylpyrimidine-2,4-diamine]
18 | < 0.2 µM | Nc1nc(NC2CC2)cc(-c2cccc(C(F)(F)F)c2)n1 [Example 16, 4-N-cyclopropyl-6-[3-(trifluoromethyl)phenyl]pyrimidine-2,4-diamine]
19 | < 0.2 µM | Nc1nc(NC2CC2)cc(-c2cccc(Cl)c2)n1 [Example 19, 6-(3-chlorophenyl)-4-N-cyclopropylpyrimidine-2,4-diamine]
20 | < 0.2 µM | CNc1cc(-c2cn(S(=O)(=O)c3ccc(C)cc3)c3ccccc23)nc(N)n1 [Example 23, 4-N-methyl-6-[1-(4-methylbenzenesulfonyl)-1H-indol-3-yl]pyrimidine-2,4-diamine]
